Data on two compounds can be found in patent publication US20060269942A1, “In situ click chemistry method for screening high affinity molecular imaging probes” (priority 2005, published 2006).

The structures appear in SMILES notation. Where two headings read alike, the source gives them in different places.

One may read the Kd as the constant that tells how readily two partners part at equilibrium.

Assay [1] has as its target T1, human carbonic anhydrase II (Homo sapiens, UniProt P00918).
T1 construct: Carbonic anhydrase II from human erythrocytes; purchased Sigma Aldrich C-6165; host or cells: human erythrocytes (natural source)
In words: Titration of human carbonic anhydrase II with DNSA (fluorescence). In kind it is binding. To be noted: enzyme 200 nM in pH 7.4 phosphate buffer, titrated with DNSA; read-out: dissociation constant (Kd) of CA·DNSA. An excerpt: (§1) General. Carbonic anhydrase II from bovine erythrocytes (Sigma-Aldrich, catalog number C2522; lot number 083K9295, 4,014 Wilbur-Anderson units/mg, 90% protein content by Biuret) was used for in situ click chemistry experiments and for the determination of binding constants. We tested the protein by SDS gel electrophoresis and found it to display a single band corresponding to 29-30,000 molecular weight units. Carbonic anhydrase II from human erythrocytes (Sigma Aldrich, catalog number C-6165, 4,260 wilbur-anderson units/mg) was used for the determination of binding affinities for the human enzyme. All fluorescence measurements were performed on a SPECTRA MAX GEMINI fluorescence plate reader at 37° C. […]
(§2) General. The fluorescence competition assay developed by Whitesides et al. (J. Am. Chem. Soc. 1994, 116, 5057) and J. C. […] The assay is based on the observation that the only fluorescence signal detected at 460 nm upon excitation at 290 nm, an absorption minimum for DNSA, is that of the DNSA·CA complex. With increasing sample concentration the fluorescence intensity due to DNSA·CA decreases as a result of competition with the test compound, allowing the determination of dissociation constants from Scatchard plots. […] The Kd values were determined from Scatchard plots using the equation below as described by Whitesides et.al. [CA·Inh]/[CA]tot·[Inh]=K11inh−K11inh{[CA·Inh]+[CA·DNSA]}/([CA]tot) […]

The target in assay [2] is T2, bovine carbonic anhydrase II (Bos taurus, UniProt P00921).
T2 construct: Carbonic anhydrase II from bovine erythrocytes; purchased Sigma-Aldrich C2522; host or cells: bovine erythrocytes (natural source)
In words: Titration of bovine carbonic anhydrase II with DNSA (fluorescence). The format is binding.
Description: as §1, §2

The target of a further assay is T3, carbonic anhydrase II (Bos taurus, UniProt P00921).
T3 construct: Carbonic anhydrase II from bovine erythrocytes; purchased Sigma-Aldrich C2522; host or cells: bovine erythrocytes (natural source)
As to the kind of experiment: DNSA fluorescence competition binding assay for carbonic anhydrase II. To be noted: in situ hit of FIG. 4 screen; enzyme species not stated at the place (bovine CA-II used for the screen and binding constants).
Description: as §1, §2

T2 sequence (P00921 whole entry): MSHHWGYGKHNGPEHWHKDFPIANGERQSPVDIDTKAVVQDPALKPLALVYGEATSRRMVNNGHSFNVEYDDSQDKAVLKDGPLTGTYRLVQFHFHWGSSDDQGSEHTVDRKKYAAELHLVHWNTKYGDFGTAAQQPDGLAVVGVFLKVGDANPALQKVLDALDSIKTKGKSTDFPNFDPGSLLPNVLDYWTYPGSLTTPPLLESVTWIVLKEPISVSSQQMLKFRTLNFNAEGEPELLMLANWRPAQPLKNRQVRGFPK
T3 sequence (P00921 whole entry): as above

As to `CN(C)c1cccc2c(S(N)(=O)=O)cccc12` [DNSA], the Kd turned out to be 425 nM in assay [1]; 390 nM in assay [2] (determined by titration experiments, value used in the mass balance, enzyme species not stated, read-out: dissociation constant Kd for DNSA); 393 nM in assay [2] (enzyme 200 nM in pH 7.4 phosphate buffer, titrated with DNSA, read-out: dissociation constant (Kd) of CA·DNSA).
As to `CC(C)[C@@H](C(=O)NCc1cc(F)ccn1)n1cc(-c2ccc(S(N)(=O)=O)cc2)nn1` [the product], on carbonic anhydrase II, the Kd was 0.5 nM.
